How the values were obtained:
[1] = test system: HCV Con1 subgenomic replicon (GS4.1 cells); assay: HCV replicon assay (NS5A ELISA, 72 hrs); assay type: cell-based; conditions: Hepatitis C virus
Description: Huh-7 cells containing HCV Con1 subgenomic replicon (GS4.1 cells) were grown in Dulbecco's Modified Eagle Medium (DMEM) supplemented with 10% fetal bovine serum (FBS), 2 mM L-glutamine, 110 mg/L sodium pyruvate, 1× non-essential amino acids, 100 U/mL penicillin-streptomycin, and 0.5 mg/mL G418 (Invitrogen). For dose-response testing, the cells were seeded in 96-well plates at 7.5×10^3 cells/well in a volume of 50 μL, and incubated at 37° C./5% CO2. Three hours after plating, 50 μL often 2-fold serial dilutions of compounds (highest concentration, 75 μM) were added, and cell cultures were incubated at 37° C./5% CO2 in the presence of 0.5% DMSO. Alternatively, compounds were tested at a single concentration of 15 μM. In all cases, Huh-7 cells lacking the HCV replicon served as negative control. The cells were incubated in the presence of compounds for 72 hrs after which they were monitored for expression of the NS5A protein by enzyme-linked immunosorbent assay (ELISA). For this, the plates were then fixed for 1 min with acetone/methanol (1:1, v/v), washed twice with phosphate-buffered saline (PBS), 0.1% Tween 20, blocked for 1 hr at room temperature with TNE buffer containing 10% FBS and then incubated for 2 hr at 37° C. with the anti-NS5A mouse monoclonal antibody A-236 (ViroGen) diluted in the same buffer. After washing three times with PBS, 0.1% Tween 20, the cells were incubated 1 hr at 37° C. with anti-mouse immunoglobulin G-peroxidase conjugate in TNE, 10% FBS. After washing as described above, the reaction was developed with O-phenylenediamine (Zymed). The reaction was stopped after 30 min with 2 NH2SO4, and absorbance was read at 492 nm using Sunrise Tecan spectrophotometer. EC50 values were determined from the % inhibition versus concentration data using a sigmoidal non-linear regression analysis based on four parameters with Tecan Magellan software.

[2] = in vitro; assay type: cell-based; conditions: human; GS4.1 cells, cellular viability
Description: For cytotoxicity evaluation, GS4.1 cells were treated with compounds as described above and cellular viability was monitored using the Cell Titer 96 AQeous One Solution Cell Proliferation Assay (Promega). CC50 values were determined from the % cytotoxicity versus concentration data with Tecan Magellan software as described above.

Row | Structure (SMILES) | EC50 [1] [µM] | CC50 [2] [µM]
1 | COC(=O)N[C@H](C(=O)N1CCC[C@H]1c1ncc(-c2ccc(-c3csc4c(Br)csc34)cc2)[nH]1)C(C)C [Compound A155, [(S)-1-((S)-2-{4-[4-(6-bromo-thieno[3,2-b]thiophen-3-yl)-phenyl]-1H-imidazol-2-yl}-pyrrolidine-1-carbonyl)-2-methyl-propyl]-carbamic acid methyl ester] | 0.01 to 0.1 | 10 to 75
2 | COC(=O)N[C@H](C(=O)N1CCC[C@H]1c1ncc(-c2ccc(-c3cn4cc(NC(=O)[C@@H]5CCCN5)nc4s3)cc2)[nH]1)C(C)C [Compound A150] | 0.01 to 0.1 | 10 to 75
3 | CC(C)(C)OC(=O)N1CCCC1c1ncc(-c2cn3cc(-c4ccc(Cl)cc4)sc3n2)[nH]1 (stereo not shown) [Compound A152] | > 0.1 | 10 to 75
4 | COC(=O)N[C@H](C(=O)N1CCC[C@H]1C(=O)Nc1cn2cc(-c3ccc(NC(=O)CNC(=O)[C@H](NC(=O)OC(C)(C)C)c4ccccc4)cc3)sc2n1)C(C)C [Compound A147] | 0.01 to 0.1 | > 75
5 | COC(=O)N[C@H](C(=O)N1CCCC1c1ncc(-c2ccc(-c3csc4c(-c5cnc(C6CCCN6C(=O)[C@H](NC(=O)OC)C(C)C)[nH]5)csc34)cc2)[nH]1)C(C)C (stereo partly shown) [Compound A77] | < 0.001 | > 75
6 | COC(=O)N[C@@H](C(=O)N1CCC[C@H]1C(=O)Nc1ccc(C#Cc2cn3cc(NC(=O)[C@@H]4CCCN4C(=O)[C@H](NC(=O)OC)c4ccccc4)nc3s2)cc1)c1ccccc1 [Compound A80] | < 0.001 | > 75
7 | CC(C)(C)OC(=O)N[C@@H](C(=O)N1CCC[C@H]1C(=O)Nc1cn2cc(-c3ccccc3)sc2n1)c1ccccc1 [Compound A27] | 0.01 to 0.1 | > 75
8 | COC(=O)N[C@H](C(=O)N1CCC[C@H]1c1ncc(C#Cc2csc3c(-c4ccc(-c5cnc([C@@H]6CCCN6C(=O)[C@@H](NC(=O)OC)C(C)C)[nH]5)cc4)csc23)[nH]1)C(C)C [Compound A84, [(S)-1-((S)-2-{4-[4-(6-{2-[(S)-1-((S)-2-methoxycarbonylamino-3-methyl-butyryl)-pyrrolidin-2-yl]-3H-imidazol-4-ylethynyl}-thieno[3,2-b]thiophen-3-yl)-phenyl]-1H-imidazol-2-yl}-pyrrolidine-1-carbonyl)-2-methyl-propyl]-carbamic acid methyl ester] | < 0.001 | > 75
9 | COC(=O)N[C@H](C(=O)N1CCCC1c1cc(-c2ccc(-c3csc4c(-c5ccc(-c6cnc(C7CCCN7C(=O)[C@@H](NC(=O)OC)C(C)C)[nH]6)cc5)csc34)cc2)[nH]n1)C(C)C (stereo partly shown) [Compound A87] | < 0.001 | > 75
10 | COC(=O)N[C@H](C(=O)N1CCC[C@H]1C(=O)Nc1ccc(-c2cn3cc(NC(=O)OC(C)(C)C)nc3s2)cc1)C(C)C [Compound A34] | 0.001 to 0.01 | 10 to 75
11 | COC(=O)N[C@H](C(=O)N1CCC[C@H]1C(=O)Nc1cn2cc(-c3cccc(NC(=O)[C@@H]4CCCN4C(=O)[C@H](NC(=O)OC)c4ccccc4)c3)sc2n1)C(C)C [Compound A149] | 0.01 to 0.1 | 10 to 75
12 | COC(=O)N[C@H](C(=O)N1CCCC1c1ncc(-c2cn3cc(-c4ccc(-c5cnc([C@@H]6CCCN6C(=O)[C@@H](NC(=O)OC)C(C)C)[nH]5)cc4)nc3s2)[nH]1)C(C)C (stereo partly shown) [Compound A7] | < 0.001 | > 75
13 | COC(=O)N[C@H](C(=O)N1CCCC1c1ncc(-c2ccc(-c3csc4cc(C(=O)OC)[nH]c34)cc2)[nH]1)C(C)C (stereo partly shown) [Compound A164] | 0.01 to 0.1 | 10 to 75
14 | CC(C)(C)OC(=O)N1CCC[C@H]1c1ncc(-c2ccc(-c3cn4c(-c5ccccc5)csc4n3)cc2)[nH]1 [Compound A158] | > 0.1 | 10 to 75
15 | COC(=O)N[C@H](C(=O)N1CCCC1c1nc(-c2ccc(-c3cn4cc(-c5ccc(-c6cnc([C@@H]7CCCN7C(=O)[C@@H](NC(=O)OC)C(C)C)[nH]6)cc5)sc4n3)cc2)c[nH]1)C(C)C (stereo partly shown) [Compound A93] | < 0.001 | > 75
16 | COC(=O)N[C@H](C(=O)N1CCCC1c1ncc(-c2ccc(-c3cn4c(-c5ccccc5)csc4n3)cc2)[nH]1)C(C)C (stereo partly shown) [Compound A162] | 0.001 to 0.01 | 10 to 75

Row | Structure (SMILES) | EC50 [1] [µM] | CC50 [2] [µM]
17 | COC(=O)N[C@H](C(=O)N1CCC[C@H]1C(=O)Nc1cn2cc(-c3ccc(-c4cnc([C@@H]5CCCN5C(=O)[C@@H](NC(=O)OC)C(C)C)[nH]4)cc3)sc2n1)C(C)C [Compound A2, (S,S,S,S)-(1-{2-[2-(4-{2-[1-(2-methoxycarbonylamino-3-methyl-butyryl)-pyrrolidin-2-yl]-3H-imidazol-4-yl}-phenyl)-imidazo[2,1-b]thiazol-6-ylcarbamoyl]-pyrrolidine-1-carbonyl}-2-methyl-propyl)-carbamic acid methyl ester] | 0.001 to 0.01 | 10 to 75
18 | COC(=O)NC(C(=O)N1CCCC1c1ncc(-c2cn3cc(-c4ccc(-c5cnc([C@@H]6CCCN6C(=O)[C@H](NC(=O)OC)c6ccccc6)[nH]5)cc4)nc3s2)[nH]1)c1ccccc1 (stereo partly shown) [Compound A60] | < 0.001 | > 75
19 | CC(C)(C)OC(=O)N[C@@H](C(=O)N1CCC[C@H]1C(=O)Nc1cn2cc(C#Cc3ccccc3)sc2n1)c1ccccc1 [Compound A23] | > 0.1 | 10 to 75
20 | CC(C)(C)OC(=O)N1CCCC1c1ncc(-c2ccc(-c3nc4sccn4c3Cl)cc2)[nH]1 (stereo not shown) [Compound A161] | > 0.1 | > 75
21 | CC(C)(C)OC(=O)N1CCCC1c1ncc(-c2ccc(-c3cn4ccsc4n3)cc2)[nH]1 (stereo not shown) [Compound A167] | > 0.1 | 
22 | CCOC(=O)N[C@@H](C(=O)N1CCC[C@H]1C(=O)Nc1cn2cc(-c3ccc(-c4cnc([C@@H]5CCCN5C(=O)[C@@H](NC(=O)OC)C(C)C)[nH]4)cc3)sc2n1)c1ccccc1 [Compound A55, (S,S,S,R)-[1-(2-{5-[4-(6-{[1-(2-ethoxycarbonylamino-2-phenylacetyl)-pyrrolidine-2-carbonyl]-amino}imidazo[2,1-b]thiazol-2-yl)-phenyl]-1H-imidazol-2-yl}pyrrolidine-1-carbonyl)-2-methyl-propyl]-carbamic acid methyl ester] | < 0.001 | 10 to 75
23 | CC(C)(C)OC(=O)N[C@@H](C(=O)N1CCOC[C@H]1C(=O)Nc1cn2cc(-c3ccccc3)sc2n1)c1ccccc1 [Compound A22] | > 0.1 | > 75
24 | COC(=O)N[C@H](C(=O)N1CCCC1c1nc(-c2ccc(-c3sc4cc(-c5ccc(-c6cnc([C@@H]7CCCN7C(=O)[C@@H](NC(=O)OC)C(C)C)[nH]6)cc5)sc4c3-c3ccc(-c4cnc(C5CCCN5C(=O)[C@@H](NC(=O)OC)C(C)C)[nH]4)cc3)cc2)c[nH]1)C(C)C (stereo partly shown) [Compound A105] | 0.01 to 0.1 | 10 to 75
25 | COC(=O)N[C@H](C(=O)N1CCCC1c1nc(-c2ccc(-c3cc4sc(-c5ccc(-c6cnc([C@@H]7CCCN7C(=O)[C@@H](NC(=O)OC)C(C)C)[nH]6)cc5)cc4s3)cc2)c[nH]1)C(C)C (stereo partly shown) [Compound A159] | < 0.001 | > 75
26 | COC(=O)N[C@H](C(=O)N1CCC[C@H]1c1ncc(-c2ccc(-c3cn4cc(-c5cnc(C6CCCN6C(=O)[C@@H](NC(=O)OC(C)(C)C)c6ccccc6)[nH]5)nc4s3)cc2)[nH]1)C(C)C (stereo partly shown) [Compound A33] | < 0.001 | > 75
27 | CC(C)(C)OC(=O)Nc1ccc(-c2cn3cc(NC(=O)[C@@H]4CCCN4C(=O)[C@H](NC(=O)OC(C)(C)C)c4ccccc4)nc3s2)cc1 [Compound A29] | > 0.1 | 10 to 75
28 | COC(=O)N[C@H](C(=O)N1CCC[C@H]1c1ncc(-c2ccc(-c3cn4cc(NC(=O)[C@@H]5CCCN5C(=O)[C@H](NC(=O)OC)c5ccccc5)nc4s3)cc2)[nH]1)C(C)C [Compound A30, (S,S,S,R)-[1-(2-{5-[4-(6-{[1-(2-methoxycarbonylamino-2-phenyl-acetyl)-pyrrolidin-2-carbonyl]-amino}-imidazo[2,1-b]thiazol-2-yl)-phenyl]-1H-imidazol-2-yl}-pyrrolidine-1-carbonyl)-2-methyl-propyl]-carbamic acid methyl ester] | < 0.001 | > 75
29 | COC(=O)N[C@H](C(=O)N1CCCC1c1nc(-c2ccc(-c3c(C(=O)OC)[nH]c4c(-c5ccc(-c6cnc(C7CCCN7C(=O)[C@@H](NC(=O)OC)C(C)C)[nH]6)cc5)csc34)cc2)c[nH]1)C(C)C (stereo partly shown) [Compound A163] | < 0.001 | > 75
30 | COC(=O)N[C@H](C(=O)N1CCC[C@H]1c1ncc(-c2ccc(-c3cn4cc(NC(=O)CNC(=O)[C@H](NC(=O)OC(C)(C)C)c5ccccc5)nc4s3)cc2)[nH]1)C(C)C [Compound A148] | 0.001 to 0.01 | > 75
31 | COC(=O)N[C@H](C(=O)N1CCCC1c1ncc(-c2ccc(-c3csc4c(-c5cnc(C6CCCN6C(=O)[C@@H](NC(=O)OC(C)(C)C)C(C)C)[nH]5)csc34)cc2)[nH]1)C(C)C (stereo partly shown) [Compound A76] | < 0.001 | > 75

From patent publication US20120252721A1 (priority 2011, published 2012)
